These results are taken from patent US5284759A, “Biological production of acetal or ketal substituted benzene compounds” (Minnesota Mining and Manufacturing Company, priority 1992, dated 1994).

Data set [1] can be described thus: solubility of substrates in MSB buffer. It is filed as physicochemical. The source says: (§1) Two significant parameters of each substrate tested were toxicity and water solubility. The combined effects of those parameters will influence the maximum rate of biotransformation by the microbial culture. Methods were developed to examine the effects of substrate concentration on the rate of biotransformation and cell growth. The rates of biotransformation were apparently independent of the substrates' water solubility. For example, the solubilities of bromobenzene, acetophenone, and 1-phenyl-1,2-ethanediol in MSB buffer (at 30° C.) are approximately 400 mg/liter, 2000 mg/liter, and 5000 mg/liter, respectively. Bromobenzene, one of the least water-soluble substrates tested, was transformed to its dihydrodiol by strain F39/D at an average rate of about 20 mg/liter/hour. […] Substrate toxicity was determined by examining the growth rate of strain F39/D in the presence of the test compounds.

The subject of data set [2] is Pseudomonas putida strain F39/D. Put plainly: substrate toxicity: growth of strain F39/D in the presence of the test compounds. It is filed as cell-based.
Source text: as §1

The test system is the same in data set [3]. In words: rate of biotransformation of substrate to its dihydrodiol by strain F39/D. It is filed as cell-based.
Source text: as §1
Biotransformation preferably involves the addition of the starting substrate to an induced microbial cell suspension. The microorganisms are then allowed to grow such that the enzyme, arene 2,3-dioxygenase may act on the substrate. The induced microorganisms are prepared as described above. […]

Each structure is given as a SMILES string. Values after ≈ are worked out from the molar mass of the structure shown.

As to `OCC(O)c1ccccc1` (stereo not shown) [1-phenyl-1,2-ethanediol], the “solubility in MSB buffer” value in data set [1] (msb buffer) is ~5 mg/mL (≈ 36.2 mM).

Turning to `CC(=O)c1ccccc1` [acetophenone], in data set [1] (msb buffer), the “solubility in MSB buffer” value was ~2 mg/mL (≈ 16.6 mM). In addition, the “growth of the microbes” value in data set [2] (1000 mg/l (one-half saturated level)) is given as “completely inhibited”.

In the case of `Brc1ccccc1` [bromobenzene], the “average rate of transformation to its dihydrodiol” value in data set [3] is given as “about 20 mg/liter/hour”. The “rate of transformation compared with acetophenone or 1-phenylethanediol” value in data set [3] (relative to acetophenone or 1-phenylethanediol transformation) is listed as “much greater than that of acetophenone or 1-phenylethanediol transformation”. Also, the “solubility in MSB buffer” value in data set [1] (MSB buffer, 30° C.) was “approximately 400 mg/liter”. The “growth of the microbes” value in data set [2] (400 mg/l (saturated level)) is “apparently unaffected”.
